In general, IC50 refers to the concentration at which inhibition is half-maximal. A lower IC50 goes with greater potency in that assay. For orientation: Inhibition means the relative decrease from the control value, in per cent. High values mean strong suppression, low ones little suppression.

Test [1] concerns the target T1, Type-1 angiotensin II receptor (Bos taurus, UniProt P25104).
T1 sequence (P25104 whole entry): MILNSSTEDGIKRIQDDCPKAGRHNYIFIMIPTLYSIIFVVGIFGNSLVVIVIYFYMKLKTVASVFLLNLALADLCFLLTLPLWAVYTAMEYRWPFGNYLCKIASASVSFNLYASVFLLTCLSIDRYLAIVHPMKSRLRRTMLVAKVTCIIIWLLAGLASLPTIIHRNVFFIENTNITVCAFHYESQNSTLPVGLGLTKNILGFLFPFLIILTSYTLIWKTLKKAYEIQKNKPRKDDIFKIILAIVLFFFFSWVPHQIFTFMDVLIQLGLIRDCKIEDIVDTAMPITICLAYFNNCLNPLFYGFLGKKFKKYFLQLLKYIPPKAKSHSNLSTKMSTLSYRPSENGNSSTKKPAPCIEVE
Description: Concentration required to inhibit [125I]AII binding to Angiotensin II receptor from membrane fractions of bovine adrenal cortex. Format: tissue-based.

The species named for test [2] is Oryctolagus cuniculus. Description: In vitro inhibition of contraction of rabbit aorta strips measured as pA2 calculated by the method of Van Rossum. The conditions noted are these: read-out: pA2 (converted). It counts as functional.
The species named for test [3] is Oryctolagus cuniculus. Description: In vitro inhibition of contraction of rabbit aorta strips measured as pD2 calculated by the method of Van Rossum. Format: functional.
Test [4] is filed under the species Oryctolagus cuniculus. The test is described as follows: Percent response at a dose of […] on AII induced contraction in isolated rabbit aorta, expressed as percent of maximal response. It counts as functional.
For test [5], the species on record is Oryctolagus cuniculus. The test is described as follows: Percent response at a dose of 9M on AII induced contraction in isolated rabbit aorta, expressed as percent of maximal response. Format: functional.
A further test concerns Rattus norvegicus. Description: Inhibitory effect at a dose of 1mg/gk, po on AII induced pressor response at a dose of 100ng/kg, iv in conscious normotensive rats. Format: functional.
The species named for test [6] is Oryctolagus cuniculus. The test is described as follows: Percent response at a dose of 8M on AII induced contraction in isolated rabbit aorta, expressed as percent of maximal response. Format: functional.

Compound `CCCc1cn2nccc2n1Cc1ccc(-c2ccccc2-c2nn[nH]n2)cc1` registered an IC50 in test [1] of 3300 nM. Moreover, the Kb in the test listed under Oryctolagus cuniculus [2] is 57.5 nM.

For the compound `CCCc1cn2ncc(C(=O)O)c2n1Cc1ccc(-c2ccccc2-c2nn[nH]n2)cc1`, the 50% inhibitory concentration (IC50) in test [1] was 48 nM. Also, the pD2 in the test filed under Oryctolagus cuniculus [3] is reported as 9.58.

Regarding `CCCCc1nc2c(C)cnc(C(=O)O)c2n1Cc1ccc(-c2ccccc2-c2nn[nH]n2)cc1`, the IC50 in test [1] stood at 36 nM. Besides, the pD2 in the test listed under Oryctolagus cuniculus [3] was 9.16.

`CCCCc1nc2c(C)cncc2n1Cc1ccc(-c2ccccc2-c2nnn[nH]2)cc1`: in test [1], the half-maximal inhibitory concentration (IC50) amounted to 54 nM. The Kb in the test listed under Oryctolagus cuniculus [2] is 12 nM.

Compound `CCSc1nc2c(C)sc(C(=O)O)c2n1Cc1ccc(-c2ccccc2-c2nn[nH]n2)cc1` had a 50% inhibitory concentration (IC50) in test [1] of 500 nM. Besides, the Response was found to be 65% in the test listed under Oryctolagus cuniculus [4] and 25% in the test filed under Oryctolagus cuniculus [5]. Further, in the test filed under Oryctolagus cuniculus [3], the pD2 is given as 9.65. The same compound displayed an Inhibition with Rattus norvegicus of 100%.

For the compound `CCOc1nc2ccccc2n1Cc1ccc(-c2ccccc2-c2nnn[nH]2)cc1`, the 50% inhibitory concentration (IC50) in test [1] was 390 nM. The Kb in the test filed under Oryctolagus cuniculus [2] was 11.7 nM.

Turning to `CCSc1nc2c(C)scc2n1Cc1ccc(-c2ccccc2-c2nn[nH]n2)cc1`, the half-inhibitory concentration (IC50) in test [1] was 1200 nM. The Response in the test filed under Oryctolagus cuniculus [6] and in the test listed under Oryctolagus cuniculus [5] was 85% throughout. Also, the Kb in the test filed under Oryctolagus cuniculus [2] was 5.5 nM. In the test on Rattus norvegicus, this compound had an Inhibition of 18%.

As for `CCOc1nc2cccc(C(=O)O)c2n1Cc1ccc(-c2ccccc2-c2nnn[nH]2)cc1` [CANDESARTAN], the pD2 in the test listed under Oryctolagus cuniculus [3] is given as 9.97.

The record behind these values is ChEMBL document CHEMBL1150444, “A new class of diacidic nonpeptide angiotensin II receptor antagonists” (Bioorg Med Chem Lett, 1994).
